# Test results as given in EP0345751A1, “Anti-retroviral diflourinated nucleosides” (MERRELL DOW PHARMACEUTICALS INC., priority 1988, dated 1989).
# Test system: Moloney murine leukemia virus (MoLV)
# Assay: in vitro XC plaque assay (inhibition of growth and replication of murine leukemia virus in mouse SC-1 cells)
# Type: cell-based
# Conditions: compound added 2 hours prior to virus; for Average No. of Foci/plate: Control 36 foci/plate
# Protocol: This assay was performed according to the method of Rowe et al. (Virology, 1970, 42, 1136-39) as previously described by L. Hsu, et al. (J. Virological Methods, 1980, 1, 167-77) and T. L. Bowlin and M. R. Proffitt (J. Interferon Res., 1983, 3(1), 19-31). Mouse SC-1 cells (fibroblast) (10⁵) were seeded into each well of 6-well cluster plates (Costar #3506) in 4 ml Minimum Essential Medium (MEM) with 10% Fetal Calf Serum (FCS). Following an 18 hour incubation period (37°C), Moloney murine leukemia virus (MoLV) was applied at a predetermined titer to give optimal (i.e. countable) numbers of virus plaques. Compounds were added 2 hours prior to addition of the virus. Three days later the culture medium was removed, the SC-1 cell monolayers were exposed to UV irradiation (1800 ergs), and rat XC cells […] were seeded into each well in 4 ml MEM. Following an additional 3 day incubation (37°C), these cells were fixed with ethyl alcohol (95%) and stained with 0.3% crystal violet. Plaques were then counted under low magnification.
Structure (SMILES),Average No. of Foci/plate (Concentration 0.0025 µg/ml),Average No. of Foci/plate (Concentration 0.005 µg/ml),Average No. of Foci/plate (Concentration 0.01 µg/ml),Average No. of Foci/plate (Concentration 0.1 µg/ml),"inhibition at 0.0025 µg/mL (Murine leukemia virus, SC1, Concentration 0.0025 µg/ml)","inhibition at 0.005 µg/mL (Murine leukemia virus, SC1, Concentration 0.005 µg/ml)","inhibition at 0.01 µg/mL (Murine leukemia virus, SC1, Concentration 0.01 µg/ml)","inhibition at 0.1 µg/mL (Murine leukemia virus, SC1, Concentration 0.1 µg/ml)",Average No. of Foci/plate (Concentration 0.001 µg/ml),"inhibition at 0.001 µg/mL (Murine leukemia virus, SC1, Concentration 0.001 µg/ml)"
"Nc1ccn([C@@H]2O[C@H](CO)[C@@H](O)C2(F)F)c(=O)n1 [2′-Deoxy-2′,2′-Difluorocytidine, 2′-deoxy-2′,2′-difluorocytidine]",28,15,0,0,22%,58%,100%,100%,–,–
"Cc1cn([C@H]2C[C@H](N=[N+]=[N-])[C@@H](CO)O2)c(=O)[nH]c1=O [AZT, 3′-azido-3′-deoxythymidine, reference compound]",–,–,–,–,–,–,–,–,18,50%
